From patent US11958812B2, “3, 5-disubstituted pyridine and 3, 5-disubstituted pyridazine derivatives and pharmaceutical use of same” (MITSUBISHI TANABE PHARMA CORPORATION, priority 2018, dated 2024)

Columns and labels:
ATX activity in plasma = target: T1, ATX activity in plasma (Rattus norvegicus, UniProt Q64610); assay: Measurement of ATX activity in plasma (ex vivo), rat single administration test; set-up: species or system male Wistar rat
T1 construct: from tissue; host or cells: plasma of male Wistar rats after oral dosing
Description: [Measurement of ATX Activity in Plasma (Ex Vivo)]
A compound administration solution prepared by wet pulverization in a mixer mill (type: MM400) for 10 min and adjusting to a given concentration with 0.5% aqueous carboxymethylcellulose solution was orally administered to male Wistar rat (5-week-old when used) at 5 mL/kg. Blood samples were collected from the cervical vein over time at 8 to 24 hr after administration. The blood was heparin-treated using a micro blood collection tube Capiject (CJ-AL, TERUMO CORPORATION), and the plasma was separated by centrifugation (4° C., 12,000 rpm, for 2 min), and preserved at −80° C. The rats after blood sampling were euthanized by exsanguination from the caudal vena cava under isoflurane inhalation anesthesia. The measurement of ATX activity in plasma was evaluated using the concentration of choline in the plasma, which was liberated from lysophosphatidylcholine (substrate of ATX) by the lysophospholipase D activity of ATX, as an index. An equal amount of 2× assay buffer (200 mM Tris-HCl pH9.0, 10 mM MgCl2, 1 M NaCl, 0.1% Triton X-100) is added to plasma (12 μL) and reacted at 37° C. for 6 hr. The reaction mixture (10 μL) after reaction for 6 hr and 45 μL of reagent R^1 solution (100 mM Tris-HCl pH 8.0, 0.5 mM TOOS, 10 U/mL peroxidase, 0.01% Triton X-100) were added and blended and absorbance at 550-700 nm was measured and used as a prevalue. As the standard, choline chloride was used. 1 mM choline chloride was diluted with 2× assay buffer up to 7 steps in 2-fold serial dilution, R^1 solution was treated similarly and the absorbance was measured. Furthermore, 15 μL of reagent R^2 solution (100 mM Tris-HCl pH 8.0, 1 mM 4-aminoantipyrine, 10 U/mL choline oxidase, 0.01% Triton X-100) was added, and the mixture was reacted at room temperature for 10 min, and absorbance at 550-700 nm was measured. The choline concentration per reaction time was calculated from the difference between the absorbance after R^2 solution addition and prevalue measured before R^2 addition and used as ATX activity value. inhibitory activity (%)=100×{1−[choline concentration (μM) of test substance administration group/choline concentration (μM) of solvent control group]} <calculating formula>

[1] = tested on: Macaca fascicularis laser-induced high intraocular pressure model; assay: Macaca fascicularis laser-induced high intraocular pressure model; type: in vivo; conditions: left eye with high intraocular pressure
Description: [Study of Action of ATX Inhibitor on Macaca fascicularis Intraocular Pressure]
The efficacy of ATX inhibitor (Example 5, hereinafter indicated as in example 5 in the Figures) for Macaca fascicularis laser-induced high intraocular pressure model was evaluated using the intraocular pressure lowering action as an index.
A green laser beam at wavelength 532 nm was uniformly irradiated to 360° around of the trabecular meshwork, which is the excretory passage of the aqueous humor, of the left eye alone, whereby high intraocular pressure was induced. The right eye was maintained normal. […]
The required amount of ATX inhibitor (Example 5) was weighed, transferred to an agate mortar and lightly ground. […] The oral vehicle was added to increase the amount and the pH was confirmed to be not exceeding 11.0 (measured value: pH10.55-10.88).
A 0.04 mol/L boric acid/phosphoric acid/acetic acid mixed solution (307 mL) was mixed with a 0.2 mol/L aqueous sodium hydroxide solution (193 mL) (pH about 8.4), pH was adjusted to 8.5 with 1 mol/L hydrochloric acid to prepare Britton-Robinson buffer (pH 8.5). […] 4.5 mg of ATX inhibitor (Example 5) was measured in a 10 mL measuring flask, the instillation administration vehicle (9.6 mL) was added and the mixture was sonicated for 30 min in an ultrasonication washing machine set to about 40° C. […]

Experimental Example 2 Rat single administration test (inhibitory activity (%) 8 hr after 1 mg/kg oral administration) (ATX activity in plasma): 92%
SMILES: COc1ccc(-c2cnnc(OC[C@H]3CC[C@H](C(F)(F)F)CC3)c2)nc1[C@H]1C[C@@H]1C(=O)O [Example 5, (1S,2S)-2-[3-methoxy-6-(6-{[trans-4-(trifluoromethyl)cyclohexyl]methoxy}pyridazin-4-yl)pyridin-2-yl]cyclopropanecarboxylic Acid]
intraocular pressure lowering action, single instillation administration ([1]; instillation, 0.0135 mg/eye, FIG. 8): statistically significant intraocular pressure lowering action
intraocular pressure lowering action, single oral administration ([1]; oral, 100 mg/kg, FIG. 7): statistically significant intraocular pressure lowering action
